This series in a line: Human HepG2 cell viability assay in 384 well format. It is filed as toxicity, cell-based. Details: dose 125 nL, time 70.5 hour; cytotoxicity at 70.5 h: concentration not given beside the values. Conditions: HepG2 cells, read-out: Inhibition.

Each structure is given as a SMILES string.

In the case of `Cc1cc(-n2cncn2)ccc1C(=O)N(C)CC(F)(F)C(F)(F)F`, the cytotoxicity at 70.5 h was -5.19%.

For `CC1(C)CCC(C(=O)O)c2ccccc21` (centres undefined), the cytotoxicity at 70.5 h is -8.46%.

As to `CN(Cc1ccc(Br)s1)Cn1nc(-c2ccccc2)oc1=O`, the cytotoxicity at 70.5 h was -9.53%.

For `Cc1ncc(CN(C)Cn2nc(-c3ccccc3)oc2=O)s1`, the cytotoxicity at 70.5 h is -13.1%.

In the case of `CN(C(=O)CNC(=O)CC(C)(C)C)C1CCN(c2ccccn2)CC1`, the cytotoxicity at 70.5 h is -6.78%.

As to `Cc1ccsc1CN(C)c1nc2c(cnn2C(C)(C)C)c(=O)[nH]1`, the cytotoxicity at 70.5 h is -4.96%.

As to `Cc1nc(-c2ccccc2)ccc1C(=O)N1CCn2c(C)nnc2C1`, the cytotoxicity at 70.5 h is -11.8%.

As to `CN(C(=O)CNc1ccc(C#N)cc1)C1CCN(c2ccccn2)CC1`, the cytotoxicity at 70.5 h is -10%.

On to `Cn1nnc2cc(C(=O)NS(=O)(=O)c3cccc(C#N)c3)ccc21`, for which the cytotoxicity at 70.5 h is -5.98%.

On to `Cc1cc(C)c2c(c1)C(NC(=O)CSCC(N)=O)CCO2` (centres undefined), for which the cytotoxicity at 70.5 h was -9.85%.

For the compound `OC(CN(Cc1ccccc1)Cc1cscn1)c1ccco1` (centres undefined), the cytotoxicity at 70.5 h is -9.5%.

Regarding `CCc1noc(CC)c1CNC(=O)Nc1cccc([S+](C)[O-])c1` (centres undefined), the cytotoxicity at 70.5 h was -1.9%.

In the case of `CCc1noc(CC)c1CNC(=O)Nc1cccc(C(=O)N(C)C)c1`, the cytotoxicity at 70.5 h was -1.22%.

In the case of `Cc1noc(C)c1CN(C)Cn1nccc1-c1cccnc1`, the cytotoxicity at 70.5 h was found to be 10.8%.

Regarding `O=C(Nc1ccc(F)c(-n2cccc2)c1)NC1(CCO)CCOCC1`, the cytotoxicity at 70.5 h is -10.8%.

In the case of `CCn1c(CN(C)C(=O)c2ccc(OC)nc2)nc2ccccc21`, the cytotoxicity at 70.5 h is -11.7%.

As for `CN(C)CC1CCN(Cc2nccn2CC(F)(F)F)CC1`, the cytotoxicity at 70.5 h is -0.976%.

Consider `CCC(C)NC(=O)CS(=O)(=O)Cc1nc(-c2cccs2)no1` (centres undefined), for which the cytotoxicity at 70.5 h is -8.46%.

Take `Cc1nn(-c2ccccc2)nc1C(=O)NCC(c1ccco1)N(C)C` (centres undefined): the cytotoxicity at 70.5 h was -15.6%.

`O=C(CCS(=O)(=O)C1CCCC1)NCCc1cccnc1`: the cytotoxicity at 70.5 h was -6.71%.

For the compound `O=C(CC1CCCO1)Nc1ccn(Cc2cccc3cccnc23)n1` (centres undefined), the cytotoxicity at 70.5 h is -6.79%.

Turning to `CCc1nnc2n1CCN(C(=O)c1cnn(C)c1C1CC1)C2`, the cytotoxicity at 70.5 h was 8.38%.

As to `O=C(COCC1CC1)Nc1ccn(Cc2cccc3cccnc23)n1`, the cytotoxicity at 70.5 h was -1.28%.

Take `CC(C)c1nnc2n1CCN(C(=O)c1cnc(C3CC3)s1)C2`: the cytotoxicity at 70.5 h is -7.9%.

With `CCC(C)(C)NC(=O)Nc1nnc(-c2ccccn2)s1`, the cytotoxicity at 70.5 h is -10.1%.

With `Cc1cnn(C2CCN(Cc3ccccc3)C2)c1N` (centres undefined), the cytotoxicity at 70.5 h worked out at 16%.

Regarding `Nc1ccnn1C1CCN(Cc2ccccc2)C1` (centres undefined), the cytotoxicity at 70.5 h worked out at 2.28%.

Turning to `CNC(=O)N(Cc1c(F)cccc1F)C1CCCC1`, the cytotoxicity at 70.5 h was -3.72%.

For the compound `Cc1nc(C2CCCCC2)sc1C(=O)O`, the cytotoxicity at 70.5 h was determined as 0.584%.

Turning to `Cc1occc1CNC(=O)Nc1ccc2nc(N3CCOCC3)oc2c1`, the cytotoxicity at 70.5 h was -9.42%.

Regarding `CN(CCCc1n[nH]c(N)c1C#N)C(=O)NC1CC1`, the cytotoxicity at 70.5 h is -2.78%.

Consider `O=C1OCCC1N1CCN(c2ccc(O)cc2)CC1` (centres undefined), for which the cytotoxicity at 70.5 h turned out to be 10.3%.

For `Cc1ccc(C(CNC(=O)Cc2nc3ncccn3n2)N(C)C)cc1` (centres undefined), the cytotoxicity at 70.5 h was -10.7%.

As for `NC(=O)Nc1cc(Br)cnc1OCC(F)(F)F`, the cytotoxicity at 70.5 h was -7.02%.

As to `CC(=O)Nc1cc(Br)cnc1OCC(F)(F)F`, the cytotoxicity at 70.5 h is 20.4%.

Regarding `NC(=O)c1cccc(CCNCc2cccs2)c1`, the cytotoxicity at 70.5 h is -3.84%.

As for `COCC(=O)Nc1cc(Br)cnc1OCC(F)(F)F`, the cytotoxicity at 70.5 h was -11.8%.

For the compound `CN1CCN(C2CCN(c3cnc4ccccc4n3)CC2)C1=O`, the cytotoxicity at 70.5 h is -12.4%.

`O=C1C(N2CCN(c3ccc(O)cc3)CC2)CCN1C1CCOCC1` (centres undefined): the cytotoxicity at 70.5 h is 24.5%.

Take `O=C(c1ncncc1Cl)N1CCN(c2ccc(Cl)cc2)CC1`: the cytotoxicity at 70.5 h is -8.8%.

For the compound `O=S(=O)(CCC1CCCO1)NCc1ncc(-c2ccccc2)o1` (centres undefined), the cytotoxicity at 70.5 h was determined as 5%.

In the case of `Cn1cc(C(=O)NC2CCCC2)c(-c2cccnc2)n1`, the cytotoxicity at 70.5 h was -10.4%.

With `NC(=O)c1cccc(CCNCc2cnc(-c3cccs3)s2)c1`, the cytotoxicity at 70.5 h is -12.1%.

For `Cc1cc(C)n(-c2ccc(C(C)NS(N)(=O)=O)cc2)n1` (centres undefined), the cytotoxicity at 70.5 h is -11.9%.

In the case of `Cn1c(C(N)=O)ccc1-c1ccccc1`, the cytotoxicity at 70.5 h is 6.66%.

As for `Cc1cc(C)n(-c2ccc(C(C)NS(=O)(=O)CCCS(C)(=O)=O)cc2)n1` (centres undefined), the cytotoxicity at 70.5 h was determined as 19.6%.

On to `O=C1C(N2CCN(c3ccccc3Cl)CC2)CCN1C1CCOCC1` (centres undefined), for which the cytotoxicity at 70.5 h was -5.64%.

As for `CC/C=C(/C)C(=O)NCc1ccc(OC)nc1`, the cytotoxicity at 70.5 h is -13.3%.

Turning to `CC(CCNC(=O)N(C)CC1CCOCC1)N1CCCCC1` (centres undefined), the cytotoxicity at 70.5 h was -7.97%.

Turning to `O=C(Nc1ccc(-n2cccn2)c(F)c1)C1CCN(C(=O)C2CC2)CC1`, the cytotoxicity at 70.5 h was -0.357%.

Turning to `CC(=O)N(C)CC(=O)Nc1ccc(C)cc1OCc1ccccc1`, the cytotoxicity at 70.5 h was -1.76%.

For `Cc1ccc(-c2n[nH]cc2CNCC2CCS(=O)(=O)C2)o1` (centres undefined), the cytotoxicity at 70.5 h turned out to be 11.2%.

On to `CC(=O)NCCCC(=O)NC1(c2ccc(Cl)c(Cl)c2)CC1`, for which the cytotoxicity at 70.5 h was determined as 2.93%.

Consider `CS(=O)(=O)NCC(=O)NC1(c2ccc(Cl)c(Cl)c2)CC1`, for which the cytotoxicity at 70.5 h is -2.05%.

On to `Cc1cc(C2CCCN2c2ncc(C(N)=O)cc2Cl)no1` (centres undefined), for which the cytotoxicity at 70.5 h is -0.208%.

Turning to `CCS(=O)(=O)CC(=O)NC1(c2ccc(Cl)c(Cl)c2)CC1`, the cytotoxicity at 70.5 h was -2.35%.

For the compound `Cn1cc(C2CCCN2c2ncnc3[nH]ccc23)cn1` (centres undefined), the cytotoxicity at 70.5 h stood at 5.41%.

With `Cc1nn(C)c(C)c1C1CCCN1c1ncnc2[nH]ccc12` (centres undefined), the cytotoxicity at 70.5 h came out at 0.0825%.

In the case of `COc1ccc(C(=O)NCCCC2(C3OCCO3)CCOCC2)cc1`, the cytotoxicity at 70.5 h was -1.34%.

For the compound `CN(C(=O)Nc1ccccn1)C1CCCN(c2ccccc2)C1=O` (centres undefined), the cytotoxicity at 70.5 h came to 3.77%.

In the case of `CCN(CCCNc1ncnc2cc(F)c(F)cc12)S(C)(=O)=O`, the cytotoxicity at 70.5 h is -1.36%.

With `N#Cc1cnc(NCCCN2C(=O)COc3ccccc32)c(Cl)c1`, the cytotoxicity at 70.5 h came out at 2.01%.

For the compound `COc1c(NC(=O)C(C)CCOc2ccccc2)c(C)nn1C` (centres undefined), the cytotoxicity at 70.5 h stood at 7.42%.

With `Cc1nn(C)c(Cl)c1C1CCCN1c1ncnc2[nH]ccc12` (centres undefined), the cytotoxicity at 70.5 h was found to be 12.9%.

Take `C1CCCN(c2nc(C3CC3)no2)CC1`: the cytotoxicity at 70.5 h is 1.49%.

For the compound `CC(C)c1nsc(N2CCn3c(nnc3C(F)(F)F)C2)n1`, the cytotoxicity at 70.5 h came out at 4.03%.

Consider `Cc1ccc(NC(=O)N(CCO)CCO)c(OCc2ccccc2)c1`, for which the cytotoxicity at 70.5 h is 10.5%.

Turning to `Cc1nnc(Cn2cc(I)cc(C)c2=O)o1`, the cytotoxicity at 70.5 h turned out to be 3.35%.

Turning to `CN1C(=O)CCN(C(=O)C2CCCCC2)c2ccccc21`, the cytotoxicity at 70.5 h amounted to 9.73%.

For `COc1ccc2c(ccn2CC(=O)N2CCCC2c2cnn(C)c2)c1` (centres undefined), the cytotoxicity at 70.5 h came to 0.452%.

Consider `N#Cc1c(Cl)nsc1NCCCN1C(=O)COc2ccccc21`, for which the cytotoxicity at 70.5 h was determined as 8.75%.

`C1CCC(N2CCCN(c3nc(C4CC4)no3)CC2)C1`: the cytotoxicity at 70.5 h stood at 0.93%.

Regarding `C1CN(c2nc(C3CC3)no2)CCN(C2CCOCC2)C1`, the cytotoxicity at 70.5 h is -0.117%.

On to `CCCNC(=O)C(C)Nc1cccc(Oc2ccc(C#N)cn2)c1` (centres undefined), for which the cytotoxicity at 70.5 h was 24.3%.
